# From patent US6566378B1, “Pesticidal compositions and pesticidal methods” (Sumitomo Chemical Company, Limited, priority 1999, dated 2003)
# What was measured:
# Assay type in all cases: in vivo
# [1] = system: Helicoverpa armigera (cotton bollworm); test: Test Example 2: test for controlling damage by Helicoverpa armigera on potted cabbage; conditions: spray on potted cabbage, five fourth-instar larvae, damage after 7 days
# Procedure: (§1) An aqueous dilution of the emulsifiable concentrate and an aqueous dilution of an emulsifiable concentrate, obtained by mixing 10 parts of Compound B or Compound C, 40 parts of xylene, 40 parts of dimethylformamide and 10 parts of Solpol 3005X, were mixed together to make a designated concentration, to which a spreading agent (New Rinou manufactured by Nihon Nohyaku) was added to make a volume of the spreading agent 1/3000. The prepared application solution was sprayed over potted cabbage (at the fourth to fifth leaf stage) at a volume of 40ml per pot. The treated plants were air dried, and then five fourth-instar larvae of Helicoverpa armigera (cotton bollworm) were set free. After 7 days, the damage (%) of the plant was observed. Each controlling ratio (%) was calculated by the following equation based on the damage (%) of non-treated plant.
# (§2) Controlling ratio (%)=100×(Damage of non-treated plant−Damage of treated plant)/ Damage of non-treated plant
# [2] = system: Aphis gossypii (cotton aphid); test: Test Example 4: test for controlling damage by Aphis gossypii on potted cucumber; conditions: spray on potted cucumber, two days after treatment
# Procedure: (§3) Twenty parts of Compound (I) were dissolved in 70 parts of Solvesso 150 (mentioned above), and 6 parts of Toximul 3454F (mentioned above) and 4 parts of Toximul 3455F (mentioned above) were added thereto and mixed well to give an emulsifiable concentrate. An aqueous dilution of the emulsifiable concentrate and an aqueous dilution of an emulsifiable concentrate, obtained by mixing 10 parts of Compound C, 40 parts of xylene, 40 parts of dimethylformamide and 10 parts of Solpol 3005X, were mixed together to make a designated concentration, to which a spreading agent (New Rinou manufactured by Nihon Nohyaku) was added to make a volume of the spreading agent 1/5000.
# (§4) About thirty Aphis gossypii (cotton aphid) in various growth stages were set free on potted cucumber (at the first leaf stage), and then the prepared application solution was sprayed over at a volume of 40ml per pot. The treated plants were air dried, covered for preventing escape of the tested aphids and invasion from the outside and set in a greenhouse (25° C.).
# (§5) Corrected indices were calculated by the following equation based on prerecorded parasitic number of tested aphids on the tested plant before treatment and the parasitic number after two days from the treatment.
# [3] = system: Helicoverpa armigera (cotton bollworm); test: Test Example 1: test for controlling damage by Helicoverpa armigera on potted cabbage; conditions: spray on potted cabbage, two fourth-instar larvae, damage after 6 days
# Procedure: as §1, with “Twenty parts of Compound (I) were dissolved in 70 parts of Solvesso 150 (solvent manufactured by Exxon Chemical), and 6 parts of Toximul 3454F (surfactant manufactured by Stepan) and 4 parts of Toximul 3455F (surfactant manufactured by Stepan) were added thereto and mixed well to give an emulsifiable concentrate. An” for “An”, “a water-soluble formulation” for “an emulsifiable concentrate, obtained by mixing 10 parts”, “A (commercial name: Mospilan water-soluble formulation produced by Kumiai Chemical Industry)” for “B or Compound C, 40 parts of xylene, 40 parts of dimethylformamide and 10 parts of Solpol 3005X,”, “two” for “five”, “6” for “7”
# as §2
# [4] = system: Aphis gossypii (cotton aphid); test: Test Example 3: test for controlling damage by Aphis gossypii on potted cucumber; conditions: spray on potted cucumber, two days after treatment, index near zero shows high controlling effect
# Procedure: as §3, with “a water-soluble formulation” for “an emulsifiable concentrate, obtained by mixing 10 parts”, “A (commercial name : Mospilan water-soluble formulation produced by Kumiai Chemical Industry)” for “C, 40 parts of xylene, 40 parts of dimethylformamide and 10 parts of Solpol 3005X,”
# as §4, §5
# Corrected index=100×(T2DAT/Tpre)/(C2DAT/Cpre)
# T2DAT: Number of the tested aphids on the plant after two days from the treatment […]
smiles,measurement,setting,value
"CN1COCN(Cc2cnc(Cl)s2)/C1=N/[N+](=O)[O-] [Compound C, 3-(2-chlorothiazol-5-ylmethyl)-5-methyl-4-nitroiminoperhydro-1,3,5-oxadiazine, reference compound]",Controlling ratio (%),[1]; 100 ppm,0%
same,Corrected index,[2]; 0.25 ppm,44
"CN/C(=N\[N+](=O)[O-])NCC1CCOC1 (centres unmarked) [Compound B, 1-[(tetrahydro-3-furanyl)methyl]-2-nitro-3-methylguanidine, reference compound]",Controlling ratio (%),[1]; 200 ppm,40%
"C/C(=N\C#N)N(C)Cc1ccc(Cl)nc1 [Compound A, (E)-N^1-[(6-chloro-3-pyridyl)methyl]-N^2-cyano-N^1-methylacetamidine, reference compound]",Controlling ratio (%),[3]; 100 ppm,0%
same,Corrected index,[4]; 0.125 ppm,29
"FC(F)(F)c1ccc(OCCCOc2c(Cl)cc(OCC=C(Cl)Cl)cc2Cl)nc1 [(I), 3,5-dichloro-1-(3,3-dichloro-2-propenyloxy)-4-[3-(5-trifluoromethylpyridin-2-yloxy)propoxy]benzene]",Controlling ratio (%),[3]; 2.5 ppm,25%
same,Controlling ratio (%),[3]; 5.0 ppm,50%
same,Corrected index,[4]; 0.5 ppm,83
same,Controlling ratio (%),[1]; 2.5 ppm,20%
same,Controlling ratio (%),[1]; 4 ppm,40%
same,Corrected index,[2]; 0.5 ppm,83
